# Measurements published in US9636324B2, “Use of 15-benzylidence-14-deoxy-11, 12 -dehyroandrographolide derivative in manufacture of medicaments for protecting liver and anti-hepatitis C virus” (Zhengzhou University, priority 2012, dated 2017).
# Columns and labels:
# [1] = system: mice with ethanol induced liver damage; test: Ethanol induced liver damage model in mice; type: in vivo, Kunming mice
# Method: Kunming mice of clean grade (male, weight 20±2 g), after adaptively fed for 3 days, are randomly divided into normal group, model group, bifendate positive control group (200 mg/kg), AD group (0.88 mmol/kg), low (0.44 mmol/kg), median (0.66 mmol/kg) and high (0.88 mmol/kg) dosage groups of compound A, and median (0.66 mmol/kg) and high (0.88 mmol/kg) dosage groups of compound B, with 8 mice in each group. Positive group and each test group are intragastrically given with respective suspension prepared with 0.5% CMC-Na, and normal group and model group are given with 0.5% CMC-Na. The drugs are given for 3 days, and 1 h after the last administration, all mice except those in the normal group are intragastrically administrated with a single dose of 50% EtOH ([…]). After 16 h, the eyeball of the mice in each group is enucleated to collect blood, which is centrifuged at 3000 rpm for 15 min to separate serum. ALT and AST activities are tested respectively (Nanjing Jiancheng Bioengineering Institute). The left lobe of liver is taken to prepare 10% homogenate using physiological saline, MDA (Nanjing Jiancheng Bioengineering Institute) content is determined. Experimental data are expressed as average±standard deviation (X±s), analyzed with SPSS 11.5 statistic software, with P<0.05 meaning there is a significant difference. Other agents, drugs and experimental methods are the same as in EXAMPLE 1.
# [2] = system: bovine viral diarrhea virus (BVDV-AV69); test: CPE observation of effects on cytopathy caused by BVDV in MDBK cells
# Method: Pharmaceutical effects of drugs of the invention against cytopathy caused by inoculation of BVDV virus are investigated using MDBK (NBL-1) cells (purchased from Chinese Academy of Science's Shanghai Center for Type Culture Collection) and bovine viral diarrhea virus (BVDV-AV69) (purchased from China Institute of Veterinary Drugs Control). Ribavirin (R; Henan RunHong Pharmaceutical Co., Ltd; batch number: E0909604) is used as positive drug control. MDBK cells are prepared as a suspension (1×10^5/mL) in RPMI1640 culture medium which contains 10% in volume fetal bovine serum (Zhejiang Tianhang Biotechnology Co., Ltd; batch number: 100524), 100 μg/mL streptomycin (Shenzheng Huayao Nanfang Pharmaceutical Co., Ltd; batch number: N09081), 100 U/mL penicillin (North China Pharmaceutical Co., Ltd; batch number: E0909604), and are seeded in 96 well plates (Costar, US) at 200 μL/well, placed in an incubator (Binder, Germany) at 37° C. with 5% CO2 to culture the cell. In 24 h when cells grow into a single layer, virus solution of 100 TCID50 (TCID50=10^−2.5) is added and incubated for 1.5 h. Maintenance medium with the drug is added at 200 μL/well after 3×PBS washes.
# After digestion of MDBK cells with trypsin, cells with a concentration of 1×10^5/mL are seeded into 96 well plates at 200 μL/well, placed in an incubator at 37° C. with 5% CO2 for 24 h. After growing into a single layer, cells are attacked using 100 TCID50 (TCID50=10^−2.5) virus and incubated for 1.5 h. The virus-containing maintenance medium is discarded, and cells are washed with PBS, followed by addition of drug-containing maintenance medium with different concentrations, and incubation in 5% CO2 at 37° C. Normal cell control, virus control, drug treatment and ribavirin treatment groups are set. The cytopathy developing status is recorded everyday by observing under an inverted microscope.
# [3] = dosage groups not distinguished, P<0.01
smiles,measurement,setting,value
C=C1CCC2C(C)(CO)C(O)CCC2(C)C1C=CC1=CC(=Cc2ccc(Cl)cc2)OC1=O (stereo not drawn) [Compound A],ALT activity in serum vs model group,[1]; [3],effectively suppress
same,AST activity in serum vs model group,[1]; [3],effectively suppress
same,MDA content in liver homogenate vs model group,[1]; [3],effectively reduce the MDA content
same,AST activity decreasing magnitude compared with AD group,"[1]; high dosage 0.88 mmol/kg, P<0.01",notably larger
same,ALT activity decreasing magnitude compared with AD group,"[1]; high dosage 0.88 mmol/kg, P<0.01 (A), P<0.05 (B)",notably larger
same,protective effect against liver damage induced by ethanol (summary),"[1]; mice, intragastric, 3 days",protective effect
same,antiviral effect compared with AD,[2]; BVDV in MDBK cells,better antiviral effect than AD
same,pharmaceutical effect against cytopathy caused by virus compared with ribavirin,[2]; BVDV in MDBK cells,better than ribavirin
same,"TI value (therapy index, TC50/IC50)","[2]; MDBK cells, BVDV-AV69, TC50 from MTT, IC50 from CPE",>127.6
